Measurements: the supplement of paper PMC10307832

Experiments:
Assay in all cases: relative viability (nuclei count vs DMSO), 5 days (fraction); higher = more cells survive
Wnt-C59 + Trametinib = compound: CC1=NC=CC(=C1)C2=CC=C(C=C2)CC(=O)NC3=CC=C(C=C3)C4=CN=CC=C4 [Wnt-C59] + CC(=O)Nc1cccc(-n2c(=O)n(C3CC3)c(=O)c3c(Nc4ccc(I)cc4F)n(C)c(=O)c(C)c32)c1 [Trametinib] (partner 0.02 µM)
Procedure, shortened: (§1)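 Relative viability is defined as nuclei in treated wells over nuclei in vehicle wells. Duplicate plates were run and medians reported. Lung cancer cell lines in 1536-well plates were dosed by pin tool one day after seeding, with one drug or with a fixed anchor-drug dose plus five library-drug doses (not always all listed) in √10 steps, and nuclei were counted after 5 days.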

Wnt-C59 + Phenformin = compound: CC1=NC=CC(=C1)C2=CC=C(C=C2)CC(=O)NC3=CC=C(C=C3)C4=CN=CC=C4 [Wnt-C59] + N=C(N)NC(=N)NCCc1ccccc1 [Phenformin] (partner 250 µM)
Procedure, shortened: as §1

Wnt-C59 + Decitabine = compound: CC1=NC=CC(=C1)C2=CC=C(C=C2)CC(=O)NC3=CC=C(C=C3)C4=CN=CC=C4 [Wnt-C59] + Nc1ncn([C@H]2C[C@H](O)[C@@H](CO)O2)c(=O)n1 [Decitabine] (partner 2 µM)
Procedure, shortened: as §1

Lapatinib + Tozasertib = compound: CS(=O)(=O)CCNCc1ccc(-c2ccc3ncnc(Nc4ccc(OCc5cccc(F)c5)c(Cl)c4)c3c2)o1 [Lapatinib] + Cc1cc(Nc2cc(N3CCN(C)CC3)nc(Sc3ccc(NC(=O)C4CC4)cc3)n2)n[nH]1 [Tozasertib] (partner 0.1 µM)
Procedure, shortened: as §1

| Cell Line | relative viability (Wnt-C59 + Trametinib; first compound 0.001 µM) | relative viability (Wnt-C59 + Trametinib; first compound 0.01 µM) | relative viability (Wnt-C59 + Trametinib; first compound 0.03162 µM) | relative viability (Wnt-C59 + Trametinib; first compound 0.1 µM) | relative viability (Wnt-C59 + Phenformin; first compound 0.001 µM) | relative viability (Wnt-C59 + Phenformin; first compound 0.01 µM) | relative viability (Wnt-C59 + Phenformin; first compound 0.03162 µM) | relative viability (Wnt-C59 + Phenformin; first compound 0.1 µM) | relative viability (Wnt-C59 + Decitabine; first compound 0.001 µM) | relative viability (Wnt-C59 + Decitabine; first compound 0.01 µM) | relative viability (Wnt-C59 + Decitabine; first compound 0.03162 µM) | relative viability (Wnt-C59 + Decitabine; first compound 0.1 µM) | relative viability (Lapatinib + Tozasertib; first compound 0.06325 µM) | relative viability (Lapatinib + Tozasertib; first compound 0.2 µM) | relative viability (Lapatinib + Tozasertib; first compound 0.6325 µM) | relative viability (Lapatinib + Tozasertib; first compound 2 µM) | relative viability (Lapatinib + Tozasertib; first compound 0.02 µM) |
| --- | --- | --- | --- | --- | --- | --- | --- | --- | --- | --- | --- | --- | --- | --- | --- | --- | --- |
| NCI-H441 | 0.474 | 0.451 | 0.465 | 0.434 | 0.845 | 0.732 | 1.04 | 0.724 | 0.232 | 0.226 | 0.246 | 0.166 | 0.551 | 0.491 | 0.462 | 0.454 | – |
| NCI-H460 | 0.0894 | 0.111 | 0.191 | 0.156 | 0.488 | 0.524 | 0.519 | 0.484 | 0.503 | 0.488 | 0.594 | 0.465 | 0.298 | 0.0669 | 0.0896 | 0.06 | 0.0815 |
| NCI-H520 | 0.709 | 0.743 | 0.598 | 0.643 | 0.503 | 0.59 | 0.59 | 0.55 | 0.48 | 0.532 | 0.537 | 0.504 | 0.393 | 0.41 | 0.543 | 0.405 | 0.511 |
| NCI-H522 | 0.786 | 0.741 | 0.829 | 0.752 | 0.614 | 0.599 | 0.601 | 0.64 | 0.707 | 0.739 | 0.782 | 0.666 | 0.433 | 0.523 | 0.561 | 0.513 | – |
| NCI-H596 | 0.734 | 0.704 | 0.879 | 0.876 | 0.746 | 0.71 | 0.923 | 0.722 | 0.996 | 0.918 | 1.07 | 1.42 | 0.741 | 0.856 | 0.779 | 0.567 | – |
| NCI-H647 | 0.503 | 0.404 | 0.528 | 0.47 | 0.479 | 0.453 | 0.578 | 0.481 | 0.379 | 0.456 | 0.393 | 0.288 | 0.197 | 0.184 | 0.212 | 0.183 | 0.312 |
| NCI-H650 | 0.984 | 0.934 | 1.08 | 1.05 | 0.441 | 0.457 | 0.483 | 0.5 | 0.346 | 0.286 | 0.308 | 0.329 | 0.648 | 0.781 | 0.698 | 0.601 | – |
| NCI-H661 | 0.567 | 0.559 | 0.593 | 0.631 | 0.292 | 0.311 | 0.27 | 0.288 | 0.542 | 0.516 | 0.576 | 0.606 | 0.367 | 0.358 | 0.348 | 0.352 | 0.377 |
| NCI-H727 | 0.399 | 0.369 | 0.355 | 0.406 | 0.337 | – | 0.545 | 0.66 | 0.91 | 0.902 | 0.901 | 0.997 | – | 0.704 | 0.453 | 0.391 | 0.602 |
| NCI-H838 | 0.538 | 0.55 | 0.491 | 0.482 | 0.573 | 0.582 | 0.588 | 0.624 | 0.459 | 0.509 | 0.453 | 0.402 | 0.257 | 0.256 | 0.258 | 0.221 | 0.235 |
| NCI-H1355 | 0.455 | 0.404 | 0.423 | 0.373 | 0.446 | 0.42 | 0.456 | 0.475 | 0.361 | 0.354 | 0.349 | 0.337 | 0.416 | 0.498 | 0.494 | 0.26 | – |
| NCI-H1395 | 0.931 | 0.995 | 1.04 | 1.02 | 0.442 | 0.423 | 0.495 | 0.429 | 0.743 | 0.76 | 0.764 | 0.704 | 0.774 | 0.701 | 0.683 | 0.677 | 0.716 |
| NCI-H1437 | 0.51 | 0.562 | 0.481 | 0.579 | 0.297 | 0.296 | 0.297 | 0.26 | 0.584 | 0.562 | 0.559 | 0.614 | 0.411 | 0.378 | 0.347 | 0.367 | 0.388 |
| NCI-H1650 | 0.642 | 0.716 | 0.684 | 0.774 | 0.449 | 0.483 | 0.454 | 0.391 | 0.494 | 0.482 | 0.407 | 0.408 | 0.325 | 0.399 | 0.288 | 0.168 | 0.354 |
| NCI-H1651 | 0.857 | 0.875 | 0.783 | 0.773 | 0.344 | 0.345 | 0.377 | 0.332 | 0.671 | 0.675 | 0.613 | 0.597 | 0.622 | 0.508 | 0.443 | 0.325 | 0.541 |
| NCI-H1666 | 0.894 | 0.762 | 0.94 | 0.79 | 0.54 | 0.498 | 0.531 | 0.561 | 0.753 | 0.73 | 0.732 | 0.767 | 0.577 | 0.573 | 0.453 | 0.36 | 0.598 |
| NCI-H1734 | 0.675 | 0.744 | 0.77 | 0.632 | 0.389 | 0.356 | 0.478 | 0.354 | 0.501 | 0.452 | 0.558 | 0.523 | 0.276 | 0.274 | 0.242 | 0.232 | 0.272 |
